Measurements as given in ChEMBL document CHEMBL5465560, “Selectivity Literature for EUbOPEN Chemogenomic Library” (2024).
One block for each compound: values may come before it.

What was measured:
[1] = biological target: Cyclin-dependent kinase 5/CDK5 activator 1 (Homo sapiens) (UniProt Q00535+Q15078); experiment: Selectivity interaction (ProQinase) EUB0000171b CDK5; format: protein-complex assay; conditions: at 1 µM
[2] = biological target: T1, Mitogen-activated protein kinase kinase kinase 13 (Homo sapiens) (UniProt O43283); experiment: Selectivity interaction (KinomeScan (DiscoverX)) EUB0000695a MAP3K13; conditions: at 100 nM
T1 sequence (whole entry): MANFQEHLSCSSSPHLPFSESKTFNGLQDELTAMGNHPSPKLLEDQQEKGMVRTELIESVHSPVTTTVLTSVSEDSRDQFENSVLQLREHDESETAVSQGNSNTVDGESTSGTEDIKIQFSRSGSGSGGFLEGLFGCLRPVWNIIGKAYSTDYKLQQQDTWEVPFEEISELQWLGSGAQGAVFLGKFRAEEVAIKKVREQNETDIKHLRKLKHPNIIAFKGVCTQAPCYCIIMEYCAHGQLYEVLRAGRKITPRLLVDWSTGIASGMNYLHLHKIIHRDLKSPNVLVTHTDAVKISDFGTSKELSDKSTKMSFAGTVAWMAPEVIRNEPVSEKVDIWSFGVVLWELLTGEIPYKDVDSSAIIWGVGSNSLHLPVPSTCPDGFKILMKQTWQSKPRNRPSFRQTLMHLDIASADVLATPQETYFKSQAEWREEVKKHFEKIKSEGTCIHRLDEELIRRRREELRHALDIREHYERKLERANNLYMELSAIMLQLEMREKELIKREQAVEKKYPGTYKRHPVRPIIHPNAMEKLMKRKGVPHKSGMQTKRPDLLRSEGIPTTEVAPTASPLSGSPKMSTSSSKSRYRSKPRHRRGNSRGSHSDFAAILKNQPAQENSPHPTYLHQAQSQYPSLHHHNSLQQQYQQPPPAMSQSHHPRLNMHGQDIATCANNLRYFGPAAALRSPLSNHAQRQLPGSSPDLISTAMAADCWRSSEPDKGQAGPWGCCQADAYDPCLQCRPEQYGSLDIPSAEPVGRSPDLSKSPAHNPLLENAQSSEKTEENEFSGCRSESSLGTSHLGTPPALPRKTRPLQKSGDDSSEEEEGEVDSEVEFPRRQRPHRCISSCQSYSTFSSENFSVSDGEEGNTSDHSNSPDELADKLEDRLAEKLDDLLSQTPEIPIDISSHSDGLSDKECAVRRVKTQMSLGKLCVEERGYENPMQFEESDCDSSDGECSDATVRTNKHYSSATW

[3] = biological target: Tyrosine-protein kinase JAK1 (Homo sapiens, UniProt P23458); experiment: Selectivity interaction (Ambit KINOMEscan and KiNATiv profiling in Jurkat cells) EUB0000090b JAK1; format: cell-based; conditions: at 1 µM
[4] = biological target: Phosphatidylinositol 4-phosphate 5-kinase type-1 gamma (Homo sapiens) (UniProt O60331); experiment: Selectivity interaction (KinomeScan (DiscoverX)) EUB0000655a PIP5K1C; conditions: at 10 µM
[5] = biological target: Cyclin-dependent kinase 7 (Homo sapiens, UniProt P50613); experiment: Selectivity interaction (KinomeScan (DiscoverX)) EUB0001550a CDK7; conditions: at 1 µM
[6] = biological target: T2, Serine/threonine-protein kinase ULK2 (Homo sapiens) (UniProt Q8IYT8); conditions: at 10 µM
T2 sequence (whole entry): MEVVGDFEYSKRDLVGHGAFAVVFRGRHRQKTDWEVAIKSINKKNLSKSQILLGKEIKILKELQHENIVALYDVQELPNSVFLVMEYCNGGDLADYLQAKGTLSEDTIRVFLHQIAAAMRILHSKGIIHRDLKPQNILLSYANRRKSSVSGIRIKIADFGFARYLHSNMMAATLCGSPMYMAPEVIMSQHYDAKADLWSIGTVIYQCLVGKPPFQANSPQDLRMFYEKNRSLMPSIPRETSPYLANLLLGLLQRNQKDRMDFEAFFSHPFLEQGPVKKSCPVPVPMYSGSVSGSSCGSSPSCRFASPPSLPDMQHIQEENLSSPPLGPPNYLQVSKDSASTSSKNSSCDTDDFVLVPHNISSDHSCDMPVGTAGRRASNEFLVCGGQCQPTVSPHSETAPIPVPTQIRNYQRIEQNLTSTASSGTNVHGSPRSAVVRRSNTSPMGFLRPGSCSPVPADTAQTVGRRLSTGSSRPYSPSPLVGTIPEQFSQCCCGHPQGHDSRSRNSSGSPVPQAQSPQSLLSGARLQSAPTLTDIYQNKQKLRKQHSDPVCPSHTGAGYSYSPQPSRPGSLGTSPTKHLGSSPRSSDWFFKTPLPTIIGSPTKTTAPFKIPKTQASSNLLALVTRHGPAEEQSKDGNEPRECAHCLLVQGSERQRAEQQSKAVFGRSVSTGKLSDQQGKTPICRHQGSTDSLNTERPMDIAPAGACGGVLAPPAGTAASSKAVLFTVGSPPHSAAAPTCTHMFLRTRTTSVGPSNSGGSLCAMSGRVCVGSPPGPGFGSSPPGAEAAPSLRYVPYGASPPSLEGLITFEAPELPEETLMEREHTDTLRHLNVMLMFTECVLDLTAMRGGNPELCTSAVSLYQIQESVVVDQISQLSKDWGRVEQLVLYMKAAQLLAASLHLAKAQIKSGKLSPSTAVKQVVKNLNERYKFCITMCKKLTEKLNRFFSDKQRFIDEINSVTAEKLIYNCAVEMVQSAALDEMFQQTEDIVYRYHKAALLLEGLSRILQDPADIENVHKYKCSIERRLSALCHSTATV

[7] = biological target: Macrophage-stimulating protein receptor (Homo sapiens, UniProt Q04912); experiment: Selectivity interaction (KinomeScan (DiscoverX)) EUB0001619a MST1R; conditions: at 1 µM
[8] = biological target: Phosphatidylinositol 4-kinase beta (Homo sapiens, UniProt Q9UBF8); experiment: Selectivity interaction (KinomeScan (DiscoverX)) EUB0001619a PI4KB; conditions: at 1 µM
Phosphatidylinositol 4-kinase beta, sequence (Q9UBF8 2-816 limits assumed): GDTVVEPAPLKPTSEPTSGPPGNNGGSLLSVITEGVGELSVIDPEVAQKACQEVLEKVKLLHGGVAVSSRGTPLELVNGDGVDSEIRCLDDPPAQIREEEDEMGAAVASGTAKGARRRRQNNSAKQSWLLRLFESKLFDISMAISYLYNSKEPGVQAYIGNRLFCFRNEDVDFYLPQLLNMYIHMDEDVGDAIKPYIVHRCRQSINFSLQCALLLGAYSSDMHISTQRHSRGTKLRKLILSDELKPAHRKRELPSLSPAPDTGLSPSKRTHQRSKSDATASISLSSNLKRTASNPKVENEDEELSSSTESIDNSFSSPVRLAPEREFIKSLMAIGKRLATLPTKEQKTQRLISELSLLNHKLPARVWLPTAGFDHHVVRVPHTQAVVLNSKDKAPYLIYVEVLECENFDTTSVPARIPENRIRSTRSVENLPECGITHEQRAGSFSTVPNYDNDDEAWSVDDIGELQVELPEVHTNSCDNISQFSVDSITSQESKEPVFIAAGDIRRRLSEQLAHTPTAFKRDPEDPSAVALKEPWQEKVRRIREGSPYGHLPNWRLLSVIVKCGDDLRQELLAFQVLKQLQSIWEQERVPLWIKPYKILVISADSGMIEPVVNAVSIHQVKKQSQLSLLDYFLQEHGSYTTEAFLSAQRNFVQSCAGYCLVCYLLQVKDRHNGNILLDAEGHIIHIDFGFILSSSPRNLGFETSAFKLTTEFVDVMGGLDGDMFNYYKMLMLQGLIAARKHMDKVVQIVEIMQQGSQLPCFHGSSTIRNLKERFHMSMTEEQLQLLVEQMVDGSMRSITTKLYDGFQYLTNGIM

Macrophage-stimulating protein receptor, sequence (Q04912 25-304 limits assumed): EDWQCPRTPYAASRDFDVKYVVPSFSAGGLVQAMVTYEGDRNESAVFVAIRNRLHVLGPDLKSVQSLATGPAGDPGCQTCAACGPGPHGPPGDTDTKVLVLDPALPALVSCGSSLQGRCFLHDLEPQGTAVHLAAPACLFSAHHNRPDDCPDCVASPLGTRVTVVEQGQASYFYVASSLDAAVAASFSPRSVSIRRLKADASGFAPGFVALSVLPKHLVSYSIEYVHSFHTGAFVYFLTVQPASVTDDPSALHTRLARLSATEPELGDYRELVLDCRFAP
Macrophage-stimulating protein receptor, sequence (Q04912 310-1400 limits assumed): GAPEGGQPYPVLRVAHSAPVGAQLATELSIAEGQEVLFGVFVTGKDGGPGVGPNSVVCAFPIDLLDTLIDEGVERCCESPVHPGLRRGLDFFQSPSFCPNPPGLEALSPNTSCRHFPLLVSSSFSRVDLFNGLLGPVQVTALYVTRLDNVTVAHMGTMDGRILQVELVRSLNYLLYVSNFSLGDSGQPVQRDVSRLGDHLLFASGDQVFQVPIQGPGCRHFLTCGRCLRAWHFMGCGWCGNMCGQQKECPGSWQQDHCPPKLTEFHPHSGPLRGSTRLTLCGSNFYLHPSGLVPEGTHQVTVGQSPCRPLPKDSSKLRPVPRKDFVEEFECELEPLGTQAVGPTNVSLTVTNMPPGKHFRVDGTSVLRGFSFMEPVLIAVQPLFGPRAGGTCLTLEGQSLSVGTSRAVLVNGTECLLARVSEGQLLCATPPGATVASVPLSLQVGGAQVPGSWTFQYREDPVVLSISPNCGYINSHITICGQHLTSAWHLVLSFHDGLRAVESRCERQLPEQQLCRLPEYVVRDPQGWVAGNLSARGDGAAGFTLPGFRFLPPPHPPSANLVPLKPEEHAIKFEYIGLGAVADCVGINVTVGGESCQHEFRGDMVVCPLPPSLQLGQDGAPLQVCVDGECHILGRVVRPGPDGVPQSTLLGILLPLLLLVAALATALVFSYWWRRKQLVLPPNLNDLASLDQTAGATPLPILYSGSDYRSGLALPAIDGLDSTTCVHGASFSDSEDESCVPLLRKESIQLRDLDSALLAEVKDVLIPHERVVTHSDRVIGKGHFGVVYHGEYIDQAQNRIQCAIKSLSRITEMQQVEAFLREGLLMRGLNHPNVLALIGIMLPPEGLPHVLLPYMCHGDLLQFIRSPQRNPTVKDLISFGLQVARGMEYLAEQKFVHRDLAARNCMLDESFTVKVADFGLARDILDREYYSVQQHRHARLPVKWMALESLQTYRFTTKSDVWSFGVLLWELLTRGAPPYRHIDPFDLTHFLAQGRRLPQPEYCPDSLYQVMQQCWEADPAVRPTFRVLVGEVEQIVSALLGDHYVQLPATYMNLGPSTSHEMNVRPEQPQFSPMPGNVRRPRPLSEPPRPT
Cyclin-dependent kinase 5/CDK5 activator 1 (Homo sapiens), sequence (Q00535 whole entry): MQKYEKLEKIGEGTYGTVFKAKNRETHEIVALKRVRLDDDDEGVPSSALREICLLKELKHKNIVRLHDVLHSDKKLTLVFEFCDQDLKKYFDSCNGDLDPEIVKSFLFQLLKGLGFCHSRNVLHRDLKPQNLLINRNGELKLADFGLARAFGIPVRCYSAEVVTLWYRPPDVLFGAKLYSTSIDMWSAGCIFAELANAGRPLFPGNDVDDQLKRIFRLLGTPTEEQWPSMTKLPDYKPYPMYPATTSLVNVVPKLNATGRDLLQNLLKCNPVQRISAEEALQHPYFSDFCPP
Cyclin-dependent kinase 5/CDK5 activator 1 (Homo sapiens), sequence (Q15078 99-307 partner limits assumed): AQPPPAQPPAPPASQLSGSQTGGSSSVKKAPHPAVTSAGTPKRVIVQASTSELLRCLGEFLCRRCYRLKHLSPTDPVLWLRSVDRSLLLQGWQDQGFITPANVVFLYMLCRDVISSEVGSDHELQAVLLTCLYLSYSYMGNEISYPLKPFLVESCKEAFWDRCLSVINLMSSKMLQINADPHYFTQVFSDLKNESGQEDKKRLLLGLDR
Cyclin-dependent kinase 7, sequence (P50613 whole entry): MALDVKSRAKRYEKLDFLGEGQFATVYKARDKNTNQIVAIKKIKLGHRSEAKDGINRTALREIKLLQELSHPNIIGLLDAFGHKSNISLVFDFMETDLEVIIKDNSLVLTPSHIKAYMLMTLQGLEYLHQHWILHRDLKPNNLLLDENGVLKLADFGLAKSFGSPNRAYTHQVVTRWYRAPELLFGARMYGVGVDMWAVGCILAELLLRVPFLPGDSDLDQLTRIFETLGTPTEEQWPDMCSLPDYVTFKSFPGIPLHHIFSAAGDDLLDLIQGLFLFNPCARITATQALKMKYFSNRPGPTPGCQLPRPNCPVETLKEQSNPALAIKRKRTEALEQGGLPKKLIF
Phosphatidylinositol 4-phosphate 5-kinase type-1 gamma (Homo sapiens), sequence (O60331 whole entry): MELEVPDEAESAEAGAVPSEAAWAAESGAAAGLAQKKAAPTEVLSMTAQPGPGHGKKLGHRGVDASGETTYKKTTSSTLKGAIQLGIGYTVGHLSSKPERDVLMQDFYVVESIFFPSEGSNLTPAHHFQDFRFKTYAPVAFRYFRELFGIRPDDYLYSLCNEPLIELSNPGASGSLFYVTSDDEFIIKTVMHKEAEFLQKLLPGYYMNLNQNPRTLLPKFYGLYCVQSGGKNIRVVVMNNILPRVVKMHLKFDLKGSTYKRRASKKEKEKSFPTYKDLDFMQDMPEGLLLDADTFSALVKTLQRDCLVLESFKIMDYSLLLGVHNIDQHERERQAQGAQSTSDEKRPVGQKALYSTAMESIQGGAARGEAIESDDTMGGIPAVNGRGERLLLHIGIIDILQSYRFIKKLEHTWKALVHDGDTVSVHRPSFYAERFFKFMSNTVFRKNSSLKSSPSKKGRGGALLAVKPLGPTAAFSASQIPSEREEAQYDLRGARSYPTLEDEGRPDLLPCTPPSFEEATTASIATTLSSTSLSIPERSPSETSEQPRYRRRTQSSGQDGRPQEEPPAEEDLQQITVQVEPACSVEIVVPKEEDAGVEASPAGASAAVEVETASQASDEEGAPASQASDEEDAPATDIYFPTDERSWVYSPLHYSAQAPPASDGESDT
Tyrosine-protein kinase JAK1, sequence (P23458 whole entry): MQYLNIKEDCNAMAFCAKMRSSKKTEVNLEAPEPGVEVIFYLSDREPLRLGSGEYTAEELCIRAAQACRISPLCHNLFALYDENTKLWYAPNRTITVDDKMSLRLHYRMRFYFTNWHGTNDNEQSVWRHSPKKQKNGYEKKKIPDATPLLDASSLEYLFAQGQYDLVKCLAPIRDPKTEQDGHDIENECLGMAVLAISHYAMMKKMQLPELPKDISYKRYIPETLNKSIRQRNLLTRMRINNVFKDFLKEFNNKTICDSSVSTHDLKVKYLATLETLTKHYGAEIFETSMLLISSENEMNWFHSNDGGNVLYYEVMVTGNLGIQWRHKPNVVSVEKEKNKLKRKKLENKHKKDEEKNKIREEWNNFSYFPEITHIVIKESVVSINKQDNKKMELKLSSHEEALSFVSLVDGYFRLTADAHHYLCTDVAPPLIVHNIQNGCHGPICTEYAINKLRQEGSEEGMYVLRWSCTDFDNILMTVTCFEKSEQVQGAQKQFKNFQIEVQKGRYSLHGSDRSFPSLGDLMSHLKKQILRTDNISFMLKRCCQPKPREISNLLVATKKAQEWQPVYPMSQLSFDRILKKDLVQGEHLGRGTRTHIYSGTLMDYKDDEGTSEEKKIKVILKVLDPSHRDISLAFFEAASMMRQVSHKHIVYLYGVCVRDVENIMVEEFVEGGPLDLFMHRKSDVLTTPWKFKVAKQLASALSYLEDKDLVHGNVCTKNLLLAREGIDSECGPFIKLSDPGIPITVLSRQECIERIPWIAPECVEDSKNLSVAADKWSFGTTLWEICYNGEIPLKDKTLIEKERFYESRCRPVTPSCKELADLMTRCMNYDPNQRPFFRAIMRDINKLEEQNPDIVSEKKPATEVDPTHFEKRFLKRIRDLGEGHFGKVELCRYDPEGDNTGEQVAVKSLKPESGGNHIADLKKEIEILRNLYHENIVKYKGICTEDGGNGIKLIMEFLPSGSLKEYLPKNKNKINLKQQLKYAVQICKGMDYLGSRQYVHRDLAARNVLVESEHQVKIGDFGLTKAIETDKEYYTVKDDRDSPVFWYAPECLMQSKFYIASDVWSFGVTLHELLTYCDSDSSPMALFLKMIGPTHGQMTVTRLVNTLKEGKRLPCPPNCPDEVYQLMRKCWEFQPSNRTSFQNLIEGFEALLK

% of control [1]: 74%
Structure (SMILES): C=CC(=O)Nc1cccc(C(=O)Nc2ccc(Nc3cc(-c4[nH]c(SC)nc4C)ccn3)cc2)c1

Structure (SMILES): Cc1cc(F)c(C(=O)Nc2cccc(-c3nncn3C(C)C)n2)cc1-n1cnc(C2CC2)c1
% of control [2]: 97%

Structure (SMILES): CN(C)C/C=C/C(=O)Nc1ccc(C(=O)N2CCCC(Nc3ncc(Cl)c(-c4c[nH]c5ccccc45)n3)C2)cc1 (stereo not drawn)
% of control [3]: 70%

Structure (SMILES): CN(C)CCOc1ccc(-c2nc(-c3ccncc3)c(-c3ccc4c(c3)CC/C4=N\O)[nH]2)cc1
% of control [4]: 52%

% of control [5]: 20%
Structure (SMILES): CN(C)CC#Cc1ccc2[nH]c3c(c2c1)-c1nc(N)ncc1CCC3

Structure (SMILES): Cc1cc([C@@H](C)Nc2ccccc2C(=O)O)c2nc(N3CCOCC3)cc(=O)n2c1 [AZD-6482]
% of control [6]: 100%

Structure (SMILES): N#Cc1cccc(-c2c[nH]c3ncnc(N4CCOCC4)c23)c1
% of control [7]: 95% | % of control [8]: 71%
